{"source": "patent US8835631B2", "about": "“Therapeutic agent for cerebral infarction” (Mitsubishi Tanabe Pharma Corporation, priority 2007, dated 2014)", "key": {"IL-10": {"tested_on": "IL-10", "experiment": "IL-10 production in LPS-administered mouse", "format": "in vivo, male BALB/c mouse", "description": "(§1) LPS (lipopolysaccharide, derived from E. coli 0111:B4, Sigma, 500 μg/kg) was intraperitoneally administered to male BALB/c mouse (Charles River Laboratories Japan). After 90 min after LPS administration, the blood was taken under anesthesia, and centrifuged to collect plasma. TNF-α was measured using an Immunoassay Kit (R&D Systems) and IL-10, MCP-1 and IL-6 were measured using an Immunoassay Kit (BIOSOURCE). Test compound A, the compound synthesized in Example 3 (test compound B) and the compound synthesized in Example 7 (test compound C) were dissolved in saline, and the mixture was orally administered at 10 mg/kg 30 min before LPS administration. As shown in the Tables, the effect of each test compound on respective […] cytokines was calculated as the ratio of each cytokine concentration in the blood of the group administered with each test compound to each cytokine concentration in the blood of the group free of administration of each test compound."}, "MCP-1 [1]": {"tested_on": "MCP-1", "experiment": "MCP-1 production in LPS-administered mouse", "format": "in vivo, male BALB/c mouse", "settings": "for MCP-1 production (%): 10 mg/kg orally 30 min before LPS 500 μg/kg i.p., plasma 90 min after LPS, ratio to group without test compound", "description": "as §1"}, "[2]": {"tested_on": "monkey middle cerebral artery permanent occlusion model", "experiment": "Brain injury volume and neurological deficit in monkey middle cerebral artery permanent occlusion model", "format": "in vivo, Macaca fascicularis", "settings": "for spread of the cerebral infarction region (brain injury volume, MRI FLAIR): 5 mg/kg orally twice a day, FIG. 5", "description": "In monkey middle cerebral artery permanent occlusion model, the brain injury volume was measured by MR^1 (FLAIR method) one day and seven days after occlusion. Test compound A (5 mg/kg) dissolved in 0.5% tragacanth was repeatedly administered orally twice a day for 14 days. As for neurological score, the neurological function was evaluated by scoring the consciousness, perception, motility and muscular commands.\nThe middle cerebral artery permanent occlusion was conducted according to the method of Furuichi et al. (Furuichi, Y et al., J. Cereb. Blood Flow Metab., 23, 1183-1194, 2003), which is specifically as follows. Macaca fascicularis fasted in advance for 12 hr or longer was anesthetized by intramuscular administration of ketamine hydrochloride (10 mg/kg), anesthetized by intravenous administration of pentobarbital sodium (25 mg/kg) and fixed on an operating table. About 5 mm holes were made near foramen ovale and orbital fissure with a dental drill, dura mater and arachnoid mater were incised, and the middle cerebral artery trunk near the internal carotid artery bifurcation area was exposed. The middle cerebral artery trunk near the internal carotid artery bifurcation area was obstructed by electric coagulation to form cerebral infarction.\nTest compound A was orally administered within 1 hr and 6 hr after middle cerebral artery occlusion and within 30 min after feeding in the morning and evening (twice a day) from the next day for 14 days."}, "MCP-1 [3]": {"tested_on": "MCP-1", "experiment": "Intracerebral MCP-1 production in rat middle cerebral artery occlusion-reperfusion model", "format": "in vivo, male Wistar rats", "settings": "10 mg/kg intravenously 30 min after occlusion; brain isolated 12 hr after occlusion; ELISA; FIG. 4", "description": "The middle cerebral artery of male Wistar rats (Japan Laboratory animals Inc.) was obstructed with suture (silicon-coated nylon thread), and test compound A (10 mg/kg) dissolved in saline was intravenously administered in 30 min after occlusion, and middle cerebral artery was reperfused in 60 min after administration. In only the rats used for TNF-α measurement, test compound A was administered orally. The brain was isolated at 12 hr after the occlusion (see Koizumi, J. et al., Jpn. J. Stroke, 8, 1-8, 1986). The brain tissue was homogenized, the centrifuged supernatant was collected and cytokine and chemokine were measured by ELISA. Intracerebral TNF-α, IL-1β and IL-6 were measured using an Immunoassay Kit (BIOSOURCE) according to the manufactures' protocol. MCP-1 was measured using an MCP-1 Instant ELISA (Bener MedSystems) according to the manufactures' protocol."}, "[4]": {"settings": "10 mg/kg orally 30 min before LPS"}}, "data": [{"smiles": "CC(=O)NC1(c2ccc(CN3CCN(c4ncccn4)CC3)cc2)CC1.Cl", "note": "[test compound A, N-(1-(4-((4-(pyrimidin-2-yl)piperazin-1-yl)methyl)phenyl)cyclopropyl)acetamide•hydrochloride]", "values": [{"measurement": "IL-10 in LPS model mouse (in words)", "setting": "IL-10; [4]", "value": "increased"}, {"measurement": "IL-10 production (%)", "setting": "IL-10; Table 1, 10 mg/kg orally 30 min before LPS 500 μg/kg i.p., plasma 90 min after LPS, ratio to group without test compound", "value": 397.1, "unit": "%"}, {"measurement": "MCP-1 production in LPS model mouse (in words)", "setting": "MCP-1 [1]; [4]", "value": "suppressed"}, {"measurement": "MCP-1 production (%)", "setting": "MCP-1 [1]; Table 2", "value": 61.7, "unit": "%"}, {"measurement": "MCP-1 production (%)", "setting": "MCP-1 [1]; Table 3", "value": 72.2, "unit": "%"}, {"measurement": "neurological deficit (neurological function score)", "setting": "[2]; 5 mg/kg orally twice a day for 14 days, FIG. 6", "value": "neurological deficit-ameliorating effect"}, {"measurement": "spread of the cerebral infarction region (brain injury volume, MRI FLAIR)", "setting": "[2]; 1 day after occlusion", "value": "suppressive action"}, {"measurement": "spread of the cerebral infarction region (brain injury volume, MRI FLAIR)", "setting": "[2]; 7 days after occlusion", "value": "suppressive action"}, {"measurement": "intracerebral MCP-1 concentration increased by transient cerebral ischemia", "setting": "MCP-1 [3]", "value": "suppressed"}]}]}
